Measured values: ChEMBL document CHEMBL1201862, “PubChem BioAssay data set” (2004)
Active and inactive are the calls of the source.

Legend:
Assay type in all cases: functional
[1] = biological target: Voltage-dependent T-type calcium channel subunit alpha-1H (Homo sapiens, UniProt O95180);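 further: channel activity triggered by adding a high calcium stimulation buffer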
Fatty acid synthase [2] = biological target: T1, Fatty acid synthase (Homo sapiens, UniProt P49327); experiment: FAS thioesterase domain inhibitors, dose response, biochemical, kinetic fluorescence intensity (AID 624326);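 further: rate of fluorescence rise from hydrolysis of a fluorogenic O-methyl fluorescein ester substrate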
Fatty acid synthase [3] = biological target: T1, Fatty acid synthase; experiment: FAS thioesterase domain inhibitors, dose response, biochemical, endpoint fluorescence intensity, uHTS hits (AID 624327);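 further: fluorescence from hydrolysis of an O-methyl fluorescein acyl ester substrate by the enzyme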
[4] = biological target: T2, Short transient receptor potential channel 4 (Mus musculus, UniProt Q9QUQ5); experiment: mouse TRPC4 channel activators, dose response, cell-based, HEK293 TRPC4/mu-opioid, Fluo-4 calcium (AID 434937)
T2 sequence (Q9QUQ5 whole entry): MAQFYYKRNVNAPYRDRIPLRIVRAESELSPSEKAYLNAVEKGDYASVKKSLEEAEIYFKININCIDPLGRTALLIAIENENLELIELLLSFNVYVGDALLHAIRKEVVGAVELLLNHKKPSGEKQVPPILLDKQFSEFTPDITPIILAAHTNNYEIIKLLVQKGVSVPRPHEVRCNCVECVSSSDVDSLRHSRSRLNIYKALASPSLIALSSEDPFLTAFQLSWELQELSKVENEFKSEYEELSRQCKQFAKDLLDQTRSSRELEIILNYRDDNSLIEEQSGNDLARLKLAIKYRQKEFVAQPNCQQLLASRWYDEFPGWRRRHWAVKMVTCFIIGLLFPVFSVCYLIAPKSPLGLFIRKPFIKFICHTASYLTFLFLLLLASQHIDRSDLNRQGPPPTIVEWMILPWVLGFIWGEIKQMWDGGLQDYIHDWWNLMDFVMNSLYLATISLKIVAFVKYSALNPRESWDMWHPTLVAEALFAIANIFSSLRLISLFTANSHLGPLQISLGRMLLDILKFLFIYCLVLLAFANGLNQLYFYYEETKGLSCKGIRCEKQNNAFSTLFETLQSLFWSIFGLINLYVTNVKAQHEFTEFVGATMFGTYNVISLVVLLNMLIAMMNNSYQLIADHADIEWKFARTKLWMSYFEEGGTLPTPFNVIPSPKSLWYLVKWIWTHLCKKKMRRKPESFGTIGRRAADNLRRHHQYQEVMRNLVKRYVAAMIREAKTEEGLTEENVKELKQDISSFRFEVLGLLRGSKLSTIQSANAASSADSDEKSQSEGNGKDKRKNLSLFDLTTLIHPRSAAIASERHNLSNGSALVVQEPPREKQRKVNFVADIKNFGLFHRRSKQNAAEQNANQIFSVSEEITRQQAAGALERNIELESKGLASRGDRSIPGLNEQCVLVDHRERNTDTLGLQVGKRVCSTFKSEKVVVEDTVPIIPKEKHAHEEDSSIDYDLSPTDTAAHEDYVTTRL

[5] = biological target: T3, DNA repair and recombination protein RAD54-like (Homo sapiens, UniProt Q92698); experiment: inhibitors of human RAD54 branch migration, confirmation, biochemical, fluorescence, cherry-picked samples, dose series (AID 651657)
T3 sequence (Q92698 whole entry): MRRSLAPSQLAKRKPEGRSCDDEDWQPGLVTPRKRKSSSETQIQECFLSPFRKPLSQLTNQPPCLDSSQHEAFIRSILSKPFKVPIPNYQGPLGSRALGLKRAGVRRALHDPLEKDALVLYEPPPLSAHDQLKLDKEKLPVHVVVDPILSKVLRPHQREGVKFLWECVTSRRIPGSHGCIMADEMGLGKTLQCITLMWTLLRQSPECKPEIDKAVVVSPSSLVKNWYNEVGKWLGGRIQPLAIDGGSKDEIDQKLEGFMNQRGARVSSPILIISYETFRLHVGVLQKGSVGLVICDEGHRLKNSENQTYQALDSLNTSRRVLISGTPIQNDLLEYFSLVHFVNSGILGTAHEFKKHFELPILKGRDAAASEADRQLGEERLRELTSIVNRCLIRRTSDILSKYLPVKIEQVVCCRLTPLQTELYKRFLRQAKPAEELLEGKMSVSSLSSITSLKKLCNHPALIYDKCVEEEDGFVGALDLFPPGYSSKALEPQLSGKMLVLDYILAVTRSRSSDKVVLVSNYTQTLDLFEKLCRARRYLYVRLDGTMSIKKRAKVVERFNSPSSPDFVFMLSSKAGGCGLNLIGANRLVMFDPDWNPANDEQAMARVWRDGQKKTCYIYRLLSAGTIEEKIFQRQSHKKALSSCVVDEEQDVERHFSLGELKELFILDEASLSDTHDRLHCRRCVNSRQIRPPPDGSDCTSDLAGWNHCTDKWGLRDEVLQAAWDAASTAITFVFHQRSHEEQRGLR

Voltage-dependent T-type calcium channel subunit alpha-1H, sequence (O95180 whole entry, the tested form may be a part): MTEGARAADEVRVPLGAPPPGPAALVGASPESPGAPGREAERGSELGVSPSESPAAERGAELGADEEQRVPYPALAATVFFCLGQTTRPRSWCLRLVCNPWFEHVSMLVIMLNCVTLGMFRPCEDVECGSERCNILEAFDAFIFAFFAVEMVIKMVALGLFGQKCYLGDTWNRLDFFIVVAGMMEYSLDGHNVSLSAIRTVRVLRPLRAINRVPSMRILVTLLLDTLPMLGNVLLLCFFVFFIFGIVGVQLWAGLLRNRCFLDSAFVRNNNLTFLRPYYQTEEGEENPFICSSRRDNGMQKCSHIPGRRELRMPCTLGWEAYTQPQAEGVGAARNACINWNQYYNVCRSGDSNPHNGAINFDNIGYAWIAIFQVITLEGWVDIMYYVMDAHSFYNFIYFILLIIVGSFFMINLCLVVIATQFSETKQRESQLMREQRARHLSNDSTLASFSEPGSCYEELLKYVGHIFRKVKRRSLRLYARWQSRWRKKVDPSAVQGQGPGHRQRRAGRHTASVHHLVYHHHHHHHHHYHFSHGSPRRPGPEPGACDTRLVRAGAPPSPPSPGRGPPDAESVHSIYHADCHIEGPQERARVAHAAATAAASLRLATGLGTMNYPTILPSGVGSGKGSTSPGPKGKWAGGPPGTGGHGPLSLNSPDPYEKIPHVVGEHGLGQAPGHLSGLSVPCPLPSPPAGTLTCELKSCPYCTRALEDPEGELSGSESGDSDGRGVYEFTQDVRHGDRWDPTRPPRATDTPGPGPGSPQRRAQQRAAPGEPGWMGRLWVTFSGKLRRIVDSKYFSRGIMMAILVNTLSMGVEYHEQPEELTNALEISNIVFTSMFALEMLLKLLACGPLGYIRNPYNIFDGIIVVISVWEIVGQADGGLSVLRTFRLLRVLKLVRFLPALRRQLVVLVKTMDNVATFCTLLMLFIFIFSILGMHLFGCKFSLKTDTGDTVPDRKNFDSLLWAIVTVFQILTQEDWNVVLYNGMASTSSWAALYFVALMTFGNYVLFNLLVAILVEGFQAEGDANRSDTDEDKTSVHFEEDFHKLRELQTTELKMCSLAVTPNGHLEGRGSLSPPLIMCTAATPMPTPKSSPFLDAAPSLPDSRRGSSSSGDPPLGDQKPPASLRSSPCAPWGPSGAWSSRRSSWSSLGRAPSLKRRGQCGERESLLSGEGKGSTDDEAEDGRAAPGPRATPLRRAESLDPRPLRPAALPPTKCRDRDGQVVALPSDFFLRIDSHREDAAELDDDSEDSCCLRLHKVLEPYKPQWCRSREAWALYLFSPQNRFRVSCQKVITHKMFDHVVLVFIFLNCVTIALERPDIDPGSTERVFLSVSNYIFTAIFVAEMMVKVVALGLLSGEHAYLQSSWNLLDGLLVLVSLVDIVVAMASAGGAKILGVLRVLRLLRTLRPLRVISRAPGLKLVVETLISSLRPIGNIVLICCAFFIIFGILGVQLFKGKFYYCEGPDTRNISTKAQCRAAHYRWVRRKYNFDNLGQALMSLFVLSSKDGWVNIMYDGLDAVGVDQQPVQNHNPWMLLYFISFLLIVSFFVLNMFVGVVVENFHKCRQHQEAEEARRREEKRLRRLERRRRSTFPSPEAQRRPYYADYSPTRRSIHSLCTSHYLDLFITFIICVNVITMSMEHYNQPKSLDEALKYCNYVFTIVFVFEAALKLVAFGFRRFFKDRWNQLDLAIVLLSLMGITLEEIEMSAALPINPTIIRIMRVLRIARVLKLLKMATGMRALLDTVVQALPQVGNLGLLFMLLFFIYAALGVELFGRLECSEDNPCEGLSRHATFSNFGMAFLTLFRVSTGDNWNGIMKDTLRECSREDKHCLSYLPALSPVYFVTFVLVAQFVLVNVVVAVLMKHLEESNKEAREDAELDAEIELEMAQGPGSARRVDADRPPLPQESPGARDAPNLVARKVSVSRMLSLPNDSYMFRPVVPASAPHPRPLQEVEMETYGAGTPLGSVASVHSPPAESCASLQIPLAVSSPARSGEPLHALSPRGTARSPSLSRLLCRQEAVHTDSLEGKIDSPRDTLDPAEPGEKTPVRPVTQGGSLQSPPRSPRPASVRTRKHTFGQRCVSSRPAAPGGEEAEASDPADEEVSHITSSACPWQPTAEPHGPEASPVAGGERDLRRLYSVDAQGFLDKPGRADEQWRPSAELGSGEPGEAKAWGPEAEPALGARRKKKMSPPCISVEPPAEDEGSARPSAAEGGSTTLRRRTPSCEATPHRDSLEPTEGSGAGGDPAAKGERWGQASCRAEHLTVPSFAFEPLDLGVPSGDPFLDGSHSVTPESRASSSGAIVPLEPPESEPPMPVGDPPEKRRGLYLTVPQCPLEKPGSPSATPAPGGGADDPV
T1 sequence (P49327 whole entry, the tested form may be a part): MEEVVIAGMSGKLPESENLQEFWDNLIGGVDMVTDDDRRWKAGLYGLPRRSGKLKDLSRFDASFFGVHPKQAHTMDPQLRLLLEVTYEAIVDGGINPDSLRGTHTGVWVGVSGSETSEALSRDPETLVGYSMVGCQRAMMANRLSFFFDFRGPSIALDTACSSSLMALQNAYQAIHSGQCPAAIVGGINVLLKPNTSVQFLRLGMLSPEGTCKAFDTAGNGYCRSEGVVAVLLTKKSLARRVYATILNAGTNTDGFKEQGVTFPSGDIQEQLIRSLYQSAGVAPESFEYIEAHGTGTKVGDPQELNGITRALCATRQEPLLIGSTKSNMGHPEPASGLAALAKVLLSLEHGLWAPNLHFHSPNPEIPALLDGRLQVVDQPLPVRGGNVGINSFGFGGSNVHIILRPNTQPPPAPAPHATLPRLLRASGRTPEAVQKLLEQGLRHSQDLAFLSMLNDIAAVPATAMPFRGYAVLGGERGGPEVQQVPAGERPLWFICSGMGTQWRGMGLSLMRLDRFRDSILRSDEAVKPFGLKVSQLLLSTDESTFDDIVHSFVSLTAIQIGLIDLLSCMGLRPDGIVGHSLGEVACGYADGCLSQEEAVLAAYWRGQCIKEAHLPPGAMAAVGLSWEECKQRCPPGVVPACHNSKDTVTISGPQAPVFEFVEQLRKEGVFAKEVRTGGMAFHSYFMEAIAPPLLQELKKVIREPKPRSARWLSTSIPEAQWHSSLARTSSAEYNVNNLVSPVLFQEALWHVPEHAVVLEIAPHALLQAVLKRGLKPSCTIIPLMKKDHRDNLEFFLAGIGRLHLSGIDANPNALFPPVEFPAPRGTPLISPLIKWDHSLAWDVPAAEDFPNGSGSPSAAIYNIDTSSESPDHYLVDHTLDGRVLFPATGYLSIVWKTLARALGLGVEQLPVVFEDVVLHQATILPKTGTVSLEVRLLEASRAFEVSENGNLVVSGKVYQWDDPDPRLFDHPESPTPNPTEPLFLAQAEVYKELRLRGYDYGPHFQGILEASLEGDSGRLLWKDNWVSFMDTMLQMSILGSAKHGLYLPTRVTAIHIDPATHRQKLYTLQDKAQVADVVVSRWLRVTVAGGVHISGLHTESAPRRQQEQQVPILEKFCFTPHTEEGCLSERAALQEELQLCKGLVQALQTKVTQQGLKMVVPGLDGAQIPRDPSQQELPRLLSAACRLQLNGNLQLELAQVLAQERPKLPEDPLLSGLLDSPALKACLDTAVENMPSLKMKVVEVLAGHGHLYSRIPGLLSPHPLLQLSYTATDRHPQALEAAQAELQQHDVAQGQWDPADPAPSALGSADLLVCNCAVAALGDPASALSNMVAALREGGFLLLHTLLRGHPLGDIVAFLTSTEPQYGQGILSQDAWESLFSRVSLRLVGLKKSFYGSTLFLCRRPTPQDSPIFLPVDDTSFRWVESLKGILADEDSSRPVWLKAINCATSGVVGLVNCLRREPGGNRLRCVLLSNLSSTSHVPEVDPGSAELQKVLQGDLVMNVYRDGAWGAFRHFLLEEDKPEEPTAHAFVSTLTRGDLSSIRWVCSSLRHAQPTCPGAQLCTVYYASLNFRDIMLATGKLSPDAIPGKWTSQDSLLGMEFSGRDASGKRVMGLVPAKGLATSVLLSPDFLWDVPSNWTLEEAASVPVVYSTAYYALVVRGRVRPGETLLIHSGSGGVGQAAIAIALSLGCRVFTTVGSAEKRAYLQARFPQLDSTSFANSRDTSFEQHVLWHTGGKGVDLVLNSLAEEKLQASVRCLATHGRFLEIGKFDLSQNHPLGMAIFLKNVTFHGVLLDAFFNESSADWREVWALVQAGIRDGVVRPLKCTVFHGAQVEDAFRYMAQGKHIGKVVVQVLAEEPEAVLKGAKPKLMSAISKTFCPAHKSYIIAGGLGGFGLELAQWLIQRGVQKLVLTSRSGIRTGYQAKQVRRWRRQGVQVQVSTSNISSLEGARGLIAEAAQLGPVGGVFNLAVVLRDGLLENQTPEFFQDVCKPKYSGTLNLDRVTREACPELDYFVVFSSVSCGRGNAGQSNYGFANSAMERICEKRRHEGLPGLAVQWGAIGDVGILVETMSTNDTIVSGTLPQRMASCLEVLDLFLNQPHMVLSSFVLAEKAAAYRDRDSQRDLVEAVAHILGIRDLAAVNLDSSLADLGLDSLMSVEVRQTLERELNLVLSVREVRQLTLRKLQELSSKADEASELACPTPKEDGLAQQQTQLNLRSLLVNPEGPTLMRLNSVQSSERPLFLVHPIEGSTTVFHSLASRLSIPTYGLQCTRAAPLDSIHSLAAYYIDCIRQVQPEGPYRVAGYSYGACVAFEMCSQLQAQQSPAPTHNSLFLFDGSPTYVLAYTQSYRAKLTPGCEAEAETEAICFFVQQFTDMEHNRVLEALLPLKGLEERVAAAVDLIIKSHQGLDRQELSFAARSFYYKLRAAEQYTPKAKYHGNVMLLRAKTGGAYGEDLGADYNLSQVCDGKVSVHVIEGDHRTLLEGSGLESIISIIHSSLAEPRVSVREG

**Q.** How did the EC50 [1] turn out when `O=C(NCCCN1CCN(c2cccc(Cl)c2)CC1)C1(S(=O)(=O)c2ccc(Cl)cc2)CC1` was run?
**A.** The EC50 was 6.17 µM (active).

**Q.** Which IC50 (Fatty acid synthase [2]) does the source give for `Cc1nc2ccc([N+](=O)[O-])cc2c(=O)n1Cc1ccc(Br)cc1` here?
**A.** The IC50 was 0.719 µM (active).

**Q.** And the IC50 (Fatty acid synthase [3])?
**A.** Its IC50 is 0.623 µM (active).

**Q.** With `O=S(=O)(NCCc1csc(-c2ccccc2)n1)c1cccnc1` as the compound, how does the EC50 [4] read?
**A.** The EC50 was 3.76 µM (active).

**Q.** How did the EC50 [1] turn out when `O=C(CN1CCCCCC1)N1c2ccccc2Sc2ccc(C(F)(F)F)cc21` was run?
**A.** The EC50 was 7.61 µM (active).

**Q.** How did the EC50 [4] turn out when `CN(C)CCCN(C(=O)c1ccc(S(=O)(=O)N2CCc3ccccc32)cc1)c1nc2ccc(F)cc2s1` was run?
**A.** Its EC50 is 2.66 µM (active).

**Q.** How did the EC50 [1] turn out when `CCOC(=O)c1sc(NC(=O)C(CC)OC(=O)C(CC(C)C)NC(=O)c2ccccc2)nc1C` (stereo unspecified) was run?
**A.** The EC50 was 5.2 µM (active).

**Q.** For `O=C(NCCc1ccccn1)c1ccc(OC2CCN(CCc3ccccc3)CC2)cc1`, which EC50 [4] is on record?
**A.** Its EC50 is 1.19 µM (active).

**Q.** With `CCN(CC)CC(=O)Nc1cccc2c1C(=O)c1ccccc1C2=O` as the compound, how does the AC50 [5] read?
**A.** Its AC50 is 100 µM (inactive).

**Q.** What does the source list for `COc1cc2c(C)nc3onc(-c4ccccc4)c3c2cc1OC`?
**A.** IC50 (Fatty acid synthase [2]): 19.4 µM (active); IC50 (Fatty acid synthase [3]): 7.51 µM (active)

**Q.** Which EC50 [1] does the source give for `Cc1ccc(S(=O)(=O)N(CC(=O)N2CCN(c3ccccc3F)CC2)C2CCCCC2)cc1` here?
**A.** The EC50 was 2.58 µM (active).

**Q.** Which IC50 (Fatty acid synthase [2]) does the source give for `Cc1ccc([N+](=O)[O-])cc1S(=O)(=O)NCC1COc2ccccc2O1` (stereo unspecified) here?
**A.** The IC50 was 4.43 µM (active).

**Q.** What about the IC50 (Fatty acid synthase [3]) of the same compound?
**A.** Its IC50 is 5.17 µM (active).

**Q.** How did the AC50 [5] turn out when `Cc1c(-c2cc(Br)ccc2O)nc2cc3c(cc2c1C)OCO3` was run?
**A.** Its AC50 is 57.5 µM (active).

**Q.** `Cc1ccc2[nH]cc(CCNC(=O)Nc3ccccc3)c2c1` was tested. Which EC50 [1] did it give?
**A.** The EC50 was 5.23 µM (active).
